Assay results as given in patent publication US7538194B2, “Genes encoding several poly (ADP-ribose) glycohydrolase (PARG) enzymes, the proteins and fragments thereof, and antibodies immunoreactive therewith” (University of Kentucky Research Foundation, priority 1998, dated 2009).

Biological target: T1, bPARG (construct C, 75-kDa carboxyl-terminal region) expressed in E. coli (Bos taurus, UniProt O02776)
T1 construct: construct C contained only the 75-kDa carboxyl-terminal region of the PARG, which predicted a fusion protein of approximately 79 kDa; made in house; host or cells: E. coli (pTrcHis expression plasmid; supernatant of crude cell extract)
Test: PARG activity, thin layer chromatography assay measuring release of [32P]ADP-ribose from [32P]ADP-ribose polymers
Type: biochemical, bovine
Details: 167 μm inhibitor; extract of E. coli strain containing construct C, 5 h after induction by IPTG (FIG. 6, bar 6 vs bar 5)
Procedure: For expression experiments, bacterial cultures were grown at 37° C. in 1% Bacto-tryptone, 0.5% yeast extract, and 0.5% NaCl to a density of approximately 0.6 A600/ml and were induced with 1 mM isopropyl-β-D-thiogalactoside (IPTG). Cells were-collected by centrifugation, and crude extracts were prepared by sonication (10 A600/ml) in 10 mM sodium phosphate buffer, pH 7.2, 150 mM NaCl, 0.5 mg/ml lysozyme, 0.1 mg/ml phenylmethylsulfonyl fluoride, 1 mM EDTA, 0.7 μg/ml pepstatin A, 0.5 μg/ml leupeptin, and 1 μg/ml aprotinin. Cell extracts were subjected to centrifugation, and the supernatant fraction was used for assay. PARG assay conditions were as described previously (52). Following incubations, portions of reaction mixture were analyzed by thin layer chromatography or subjected to anion exchange HPLC.
Using a thin layer chromatography assay that measures release of [^32P]ADP-ribose from [^32P]ADP-ribose polymers (53), PARG activity was detected in extracts from cells transformed by each of the constructs. […] Reaction mixtures contained approximately 15,000 cpm of [^32P]ADP-ribose polymers, and the cpm shown represent ADP-ribose released from the ADP-ribose polymers. […] No activity was detected in cells transformed with the empty vector, but activity was detectable without induction by IPTG, indicating a leaky lac promoter.

T1 sequence (O02776 322-977 limits assumed): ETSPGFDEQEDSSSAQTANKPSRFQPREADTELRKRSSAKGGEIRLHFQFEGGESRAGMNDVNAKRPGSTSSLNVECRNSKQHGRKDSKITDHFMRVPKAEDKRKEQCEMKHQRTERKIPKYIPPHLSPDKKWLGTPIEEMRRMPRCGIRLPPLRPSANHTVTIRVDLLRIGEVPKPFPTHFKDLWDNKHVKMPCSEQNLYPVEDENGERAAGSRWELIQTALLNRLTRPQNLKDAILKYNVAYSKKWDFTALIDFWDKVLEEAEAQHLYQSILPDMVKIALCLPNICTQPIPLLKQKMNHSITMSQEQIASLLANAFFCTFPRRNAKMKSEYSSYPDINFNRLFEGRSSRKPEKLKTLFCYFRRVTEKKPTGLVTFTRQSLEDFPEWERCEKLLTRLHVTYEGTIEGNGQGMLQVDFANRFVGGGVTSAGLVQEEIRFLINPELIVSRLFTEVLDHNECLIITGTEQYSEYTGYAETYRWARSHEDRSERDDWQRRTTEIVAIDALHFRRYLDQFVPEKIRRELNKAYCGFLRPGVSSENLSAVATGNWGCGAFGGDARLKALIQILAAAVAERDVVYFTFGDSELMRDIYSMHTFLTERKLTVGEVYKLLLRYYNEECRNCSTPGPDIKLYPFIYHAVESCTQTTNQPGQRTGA

enzymatic activity (ADP-ribose released from ADP-ribose polymers): strongly inhibited
SMILES: Nc1ncnc2c1ncn2[C@@H]1O[C@H](COP(=O)(O)OP(=O)(O)OC[C@H]2NC[C@H](O)[C@@H]2O)[C@@H](O)[C@H]1O [ADP-hydroxymethylpyrrolidine diol]
